# According to patent publication US12319655B2, “RAF kinase inhibitors and methods of use thereof” (Deciphera Pharmaceuticals, LLC, priority 2021, dated 2025):
# Experiments:
# [1] = target: C-Raf kinase (SEQ. ID NO: 3) (Homo sapiens (Human), UniProt P04049, Y340D/Y341D); assay: Biochemical Assay for C-Raf (1); settings: Table J, biochemical assay (1); read-out: CRAF (1)
# Procedure, shortened: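 Coupled pyruvate kinase/LDH assay tracking NADH oxidation at 340 nm, with 0.43 nM C-Raf, 30.1 nM MEK and 1 mM ATP in pH 7.5 Tris buffer (15 mM MgCl2, 1% DMSO final). Read continuously for 6 h at 30 °C, rate taken from the 4–5 h window. IC50 from four-parameter fit of percent inhibition.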
# H2405 cells = assay: H2405 Cell Proliferation Assay (1); type: cell-based; settings: Homo sapiens, NCI-H2405
# Procedure, shortened: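 Viability was read by resazurin reduction (ex 540 nm, em 600 nm; 5-6 h with 40 μL of 440 μM stock) after 67-72 h compound exposure at 37 °C.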
# [2] = target: B-Raf kinase (SEQ. ID NO: 2) (Homo sapiens (Human), UniProt P15056); assay: Biochemical Assay for B-Raf (1); settings: Table J, biochemical assay (1); read-out: BRAF (1)
# Procedure, shortened: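 Continuous PK/LDH-coupled NADH oxidation assay, A340 read for 6 h at 30° C., with 0.13 nM B-Raf, 30.1 nM MEK substrate and 1 mM ATP in Tris pH 7.5, MgCl2, DTT, detergents, 1% DMSO. Rate taken from 4–5 h window; percent inhibition vs no-compound and known-inhibitor controls; four-parameter fit gives IC50.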
# [3] = target: A-Raf kinase (SEQ. ID No: 1) (Homo sapiens (Human), UniProt P10398, Y301D/Y302D); assay: Biochemical Assay for A-Raf (1); settings: Table J, biochemical assay (1); read-out: ARAF (1)
# Procedure, shortened: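 A-Raf Y301D/Y302D at 5.55 nM phosphorylates 30.1 nM MEK with 1 mM ATP in pH 7.5 Tris buffer, 1% DMSO. Activity was read continuously as NADH oxidation at 340 nm in a pyruvate kinase/lactate dehydrogenase coupled system for 6 h at 30 °C. Rates from 4–5 h were converted to percent inhibition, and IC50 came from a four-parameter fit.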
# C-Raf kinase (SEQ. ID NO: 3), sequence (P04049 307-648 Y340D/Y341D): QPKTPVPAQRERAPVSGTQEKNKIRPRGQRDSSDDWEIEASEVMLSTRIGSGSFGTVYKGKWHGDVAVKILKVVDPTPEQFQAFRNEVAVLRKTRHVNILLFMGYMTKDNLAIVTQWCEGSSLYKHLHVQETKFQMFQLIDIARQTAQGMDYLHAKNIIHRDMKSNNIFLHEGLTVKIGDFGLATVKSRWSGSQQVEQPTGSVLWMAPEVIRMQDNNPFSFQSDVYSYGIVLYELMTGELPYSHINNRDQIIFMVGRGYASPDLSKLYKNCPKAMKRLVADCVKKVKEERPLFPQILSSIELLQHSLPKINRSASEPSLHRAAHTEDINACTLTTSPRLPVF
# A-Raf kinase (SEQ. ID No: 1), sequence (P10398 other isoform, or with tags, fused parts or gaps Y301D (already in the parent)/Y302D (already in the parent)): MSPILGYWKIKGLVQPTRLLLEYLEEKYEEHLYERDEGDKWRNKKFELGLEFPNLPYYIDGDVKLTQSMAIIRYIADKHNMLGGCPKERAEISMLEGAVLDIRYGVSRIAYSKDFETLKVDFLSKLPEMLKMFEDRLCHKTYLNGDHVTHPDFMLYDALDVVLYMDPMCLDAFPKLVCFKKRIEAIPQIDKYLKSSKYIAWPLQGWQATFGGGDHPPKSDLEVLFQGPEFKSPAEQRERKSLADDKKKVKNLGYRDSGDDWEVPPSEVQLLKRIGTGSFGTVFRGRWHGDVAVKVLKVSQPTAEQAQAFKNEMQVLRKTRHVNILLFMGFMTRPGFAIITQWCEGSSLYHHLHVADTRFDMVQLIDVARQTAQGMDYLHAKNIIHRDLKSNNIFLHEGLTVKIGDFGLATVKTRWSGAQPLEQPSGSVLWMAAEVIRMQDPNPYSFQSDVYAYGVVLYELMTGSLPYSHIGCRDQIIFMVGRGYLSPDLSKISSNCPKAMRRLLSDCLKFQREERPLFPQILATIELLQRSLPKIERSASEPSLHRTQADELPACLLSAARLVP
# B-Raf kinase (SEQ. ID NO: 2), sequence (P15056 416-766): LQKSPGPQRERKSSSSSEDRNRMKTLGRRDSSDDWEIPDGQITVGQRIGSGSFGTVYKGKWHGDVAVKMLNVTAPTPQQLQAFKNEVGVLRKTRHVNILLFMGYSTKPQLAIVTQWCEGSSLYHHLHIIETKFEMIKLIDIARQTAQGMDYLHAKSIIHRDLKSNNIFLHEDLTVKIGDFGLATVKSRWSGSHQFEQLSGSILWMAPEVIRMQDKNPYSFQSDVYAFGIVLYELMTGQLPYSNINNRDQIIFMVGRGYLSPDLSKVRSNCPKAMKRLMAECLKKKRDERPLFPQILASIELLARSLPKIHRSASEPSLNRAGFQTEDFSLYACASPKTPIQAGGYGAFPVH
Compound,IC50 [1] [nM],IC50 (H2405 cells) [nM],IC50 [2] [nM],IC50 [3] [nM]
COC(=O)Nc1cc(-c2cccc(-c3cc(NC(=O)c4ccnc(C(C)(C)F)c4)cnc3C)c2)ncn1 [Example 404],≤ 100,1000 to 10000,100 to 500,1000 to 10000
COC(=O)Nc1cc(-c2cncc(-c3cc(NC(=O)c4ccnc(C5(C#N)CC5)c4)ccc3C)c2)ncn1 [Example 405],≤ 100,≤ 100,≤ 100,1000 to 10000
Cc1ncc(NC(=O)c2ccnc(C(C)(C)F)c2)cc1-c1cncc(-c2cc(NC(=O)C3CC3)ncn2)c1 [Example 406],≤ 100,≤ 100,≤ 100,500 to 1000
Cc1ncc(NC(=O)c2ccnc(C(C)(C)C#N)c2)cc1-c1cccc(-c2cnc3ccccn23)c1 [Example 407],100 to 500,500 to 1000,500 to 1000,1000 to 10000
CNC(=O)c1cc(-c2cncc(-c3cc(NC(=O)c4ccnc(C(C)(C)F)c4)c(F)cc3C)c2)ccn1 [Example 408],≤ 100,100 to 500,100 to 500,1000 to 10000
COC(=O)Nc1cc(-c2cnnc(-c3cc(NC(=O)c4cn(C(C)C)nn4)ccc3C)c2)ccn1 [Example 409],100 to 500,1000 to 10000,100 to 500,1000 to 10000
Cc1ncc(NC(=O)c2ccnc(C(C)(C)C#N)c2)cc1-c1cncc(-c2cc(NC(=O)C3CC3)ncn2)c1 [Example 410],≤ 100,100 to 500,≤ 100,1000 to 10000
Cc1ccc(NC(=O)c2ccnc(C(C)(C)F)c2)cc1-c1cncc(-c2cc(N)ncn2)c1 [Example 411],≤ 100,100 to 500,≤ 100,1000 to 10000
Cc1ccc(NC(=O)c2cn(C(C)C)nn2)cc1-c1cncc(-c2cc(NC(=O)C3CC3)ncn2)c1 [Example 412],≤ 100,≤ 100,≤ 100,100 to 500
CNC(=O)c1cc(-c2cncc(-c3cc(NC(=O)c4ccnc(C(C)(C)F)c4)ccc3C)c2)ccn1 [Example 413],≤ 100,≤ 100,≤ 100,1000 to 10000
COC(=O)Nc1cc(-c2cncc(-c3cc(NC(=O)c4ccnc(C(C)(C)C#N)c4)ccc3C)c2)ncn1 [Example 414],≤ 100,≤ 100,≤ 100,1000 to 10000
COC(=O)Nc1cc(-c2cccc(-c3cc(NC(=O)Cn4cc(C(C)C)nn4)cnc3C)c2)ccn1 [Example 415],100 to 500,,500 to 1000,1000 to 10000
COC(=O)Nc1cc(-c2cc(-c3cc(NC(=O)c4ccnc(C(C)(C)F)c4)ccc3C)nc(C)n2)ccn1 [Example 416],≤ 100,100 to 500,≤ 100,1000 to 10000
Cc1ccc(NC(=O)c2ccnc(C(C)(C)F)c2)cc1-c1cncc(-c2ccnc(NC(=O)C3CC3)c2)c1 [Example 417],≤ 100,≤ 100,≤ 100,100 to 500
Cc1cc(F)c(NC(=O)c2ccnc(C(C)(C)C#N)c2)cc1-c1cncc(-c2ccnc(NC(=O)C3CC3)c2)c1 [Example 418],≤ 100,≤ 100,≤ 100,500 to 1000
Cc1ccc(NC(=O)c2ccnc(C(C)(F)F)c2)cc1-c1cncc(-c2cc(NC(=O)C3CC3)ncn2)c1 [Example 419],≤ 100,≤ 100,≤ 100,500 to 1000
Cc1ccc(NC(=O)c2ccnc(C(C)(C)C#N)c2)cc1-c1cncc(-c2cc(NC(=O)C(C)C)ncn2)c1 [Example 420],≤ 100,≤ 100,≤ 100,1000 to 10000
Cc1ccc(NC(=O)c2cc(C3CC3)on2)cc1-c1cncc(-c2cc(NC(=O)C3CC3)ncn2)c1 [Example 421],≤ 100,≤ 100,≤ 100,1000 to 10000
Cc1ccc(NC(=O)c2ccnc(C(C)(C)C#N)c2)cc1-c1cncc(-c2cc(N)ncn2)c1 [Example 422],≤ 100,100 to 500,100 to 500,1000 to 10000
Cc1cc(F)c(NC(=O)c2ccnc(C(C)(C)F)c2)cc1-c1cncc(-c2cc(NC(=O)C3CC3)ncn2)c1 [Example 423],≤ 100,,≤ 100,1000 to 10000
Cc1cc(F)c(NC(=O)c2ccnc(C(C)(C)C#N)c2)cc1-c1cncc(-c2cc(NC(=O)C3CC3)ncn2)c1 [Example 424],≤ 100,,≤ 100,500 to 1000

# Continued, values first:
IC50 [1] [nM],IC50 (H2405 cells) [nM],IC50 [2] [nM],IC50 [3] [nM],Compound
≤ 100,≤ 100,≤ 100,1000 to 10000,COC(=O)Nc1cc(-c2cncc(-c3cc(NC(=O)c4ccnc(C(C)(C)F)c4)ccc3C)c2)ncn1 [Example 425]
≤ 100,100 to 500,100 to 500,1000 to 10000,CNC(=O)c1cc(-c2nccc(-c3cc(NC(=O)c4ccnc(C(C)(C)F)c4)c(F)cc3C)n2)ccn1 [Example 427]
100 to 500,100 to 500,100 to 500,1000 to 10000,CNC(=O)c1cc(-c2cc(-c3cc(NC(=O)c4ccnc(C(C)(C)F)c4)ccc3C)nc(C)n2)ccn1 [Example 428]
≤ 100,≤ 100,≤ 100,100 to 500,Cc1ccc(NC(=O)c2ccnc(C(F)F)c2)cc1-c1cncc(-c2cc(NC(=O)C3CC3)ncn2)c1 [Example 429]
≤ 100,100 to 500,≤ 100,500 to 1000,Cc1ccc(NC(=O)c2cnn(C3CC3)c2)cc1-c1cncc(-c2cc(NC(=O)C3CC3)ncn2)c1 [Example 430]
≤ 100,≤ 100,≤ 100,100 to 500,Cc1ccc(NC(=O)c2cc(C(C)(C)C)on2)cc1-c1cncc(-c2cc(NC(=O)C3CC3)ncn2)c1 [Example 431]
≤ 100,,≤ 100,1000 to 10000,Cc1ccc(NC(=O)c2ccnc(C(C)(C)F)c2)cc1-c1cncc(-c2ccnc3c2CC(=O)N3)c1 [Example 432]
≤ 100,,≤ 100,1000 to 10000,Cc1ncc(NC(=O)c2ccnc(C(C)(C)F)c2)cc1-c1cncc(-c2ccnc(NC(=O)C3CC3)c2)c1 [Example 433]
≤ 100,,≤ 100,100 to 500,Cc1ccc(NC(=O)c2ccnc(C(C)C)c2)cc1-c1cncc(-c2cc(NC(=O)C3CC3)ncn2)c1 [Example 434]
≤ 100,≤ 100,≤ 100,1000 to 10000,COC(=O)Nc1cc(-c2cncc(-c3cc(NC(=O)c4ccnc(C(C)(C)F)c4)ccc3C)c2)ccn1 [Example 435]
≤ 100,≤ 100,≤ 100,500 to 1000,Cc1ccc(NC(=O)c2cc(C3CC3)n(C)n2)cc1-c1nccc(-c2ccnc(NC(=O)C3CC3)c2)n1 [Example 436]
≤ 100,100 to 500,100 to 500,1000 to 10000,CNC(=O)c1cc(-c2cc(-c3cc(NC(=O)c4ccnc(C(C)(C)C#N)c4)ccc3OC)ccn2)ccn1 [Example 437]
≤ 100,100 to 500,≤ 100,1000 to 10000,COc1ccc(NC(=O)c2ccnc(C(C)(C)C#N)c2)cc1-c1cccc(-c2cc(NC(=O)C3CC3)ncn2)c1 [Example 438]
